Results on 27 compounds are retold here after patent publication US12479821B2 (MBD CO., LTD., priority 2019, dated 2025).

Each structure is given as a SMILES string. A value given as a limit tells only on which side of the number the result lay.

The first assay addresses T1, CYP4A (Homo sapiens, UniProt Q02928).
T1 construct: host or cells: bactosome, i.e. bacterial membrane preparation (own knowledge of the term)
T1 sequence (Q02928 5-519): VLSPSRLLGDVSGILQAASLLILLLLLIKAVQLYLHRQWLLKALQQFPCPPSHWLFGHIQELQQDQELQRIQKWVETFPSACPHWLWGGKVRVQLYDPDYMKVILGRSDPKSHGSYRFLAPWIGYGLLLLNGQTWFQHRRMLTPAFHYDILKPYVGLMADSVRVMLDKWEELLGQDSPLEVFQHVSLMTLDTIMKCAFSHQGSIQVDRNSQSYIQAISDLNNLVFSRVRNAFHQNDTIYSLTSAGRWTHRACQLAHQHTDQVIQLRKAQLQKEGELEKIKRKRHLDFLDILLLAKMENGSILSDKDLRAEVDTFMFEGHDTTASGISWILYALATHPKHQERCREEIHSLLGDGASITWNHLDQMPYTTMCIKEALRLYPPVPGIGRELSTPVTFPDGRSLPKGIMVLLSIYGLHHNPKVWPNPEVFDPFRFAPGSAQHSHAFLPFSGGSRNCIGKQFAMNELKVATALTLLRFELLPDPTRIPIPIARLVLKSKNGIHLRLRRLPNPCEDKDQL
Briefly: CYP4A enzyme assay (Luciferin-ME luminescence, CYP4A bactosome). It counts as biochemical. The conditions noted are these: compound concentration 5 μM; 25%-50%; read-out: % Inhibition 25%-50%. The procedure:
A commercially available reagent was used for the reagent used in the experiment, and it was manufactured and used if necessary. The device used for activity measurement was EnVision of PerkinElmer or SpectraMax of MOLECULAR DEVICES.
First, CYP4A bactosome and synthetic compound (5 μM) were mixed in assay buffer (100 mM KPO4, 0.1% BSA, 1 mM DTT) in a 384-well plate (white opaque ploystyrene nontreated flat-bottom well), and then reacted at room temperature for 15 minutes. After adding 5 mM Luciferin-ME and NADPH Regeneration system (10× sol.A, 20× sol.B in assay buffer, Cat. Number: V865B, Promega), leave it at room temperature for 30 minutes to allow the CYP4A reaction to occur sufficiently, by adding the Luciferin Detection reagent, the CYP4A reaction was finished, luminescence reaction was induced, and the reaction was carried out at room temperature for 15 minutes. The degree of inhibition of CYP4A activity was measured by comparing the luminescence values from each well with a microplate reader.
As for `Cc1cc(N2CCN(C(=O)C3CCCN(S(=O)(=O)c4c(F)c(F)c(F)c(F)c4F)C3)CC2)c2ccccc2n1` (stereo not drawn) [Formula 30, (4-(2-methylquinolin-4-yl)piperazin-1-yl) (1-(perfluorophenylsulfonyl)piperidin-3-yl) methanone], the inhibition (usually how much of the control response was suppressed) at 5 µM is 25 to 50%.
In the case of `Cc1cc(N2CCN(C(=O)C3CCCN(S(=O)(=O)c4ccc(C(=O)N(C)C)cc4)C3)CC2)c2ccccc2n1` (stereo not drawn) [Formula 101, N,N-dimethyl-4-(3-(1-(2-methylquinolin-4-yl)piperazine-4-carbonyl)piperidin-1-ylsulfonyl)benzamide], the inhibition at 5 µM is 25 to 50%.
Regarding `O=C([C@H]1CCCN(S(=O)(=O)c2ccc(O)cc2)C1)N1CCN(c2cc(C(F)(F)F)nc3ccccc23)CC1` [Formula 70, (S)-(1-(4-hydroxyphenylsulfonyl)piperidin-3-yl) (4-(2-(trifluoromethyl)quinolin-4-yl)piperazin-1-yl) methanone], the inhibition at 5 µM lay within 25 to 50%.
In the case of `Cc1cc(N2CCN(C(=O)C3CCCN(S(=O)(=O)c4ccc(N)cc4)C3)CC2)c2ccccc2n1` (stereo not drawn) [Formula 96, (1-(4-aminophenylsulfonyl)piperidin-3-yl) (4-(2-methylquinolin-4-yl)piperazin-1-yl) methanone], the inhibition at 5 µM is 25 to 50%.
For `Cc1cccc(S(=O)(=O)N2CCCC(C(=O)N3CCN(c4cc(C)nc5ccccc45)CC3)C2)c1` (stereo not drawn) [Formula 21, (4-(2-methylquinolin-4-yl)piperazin-1-yl) (1-(m-tolylsulfonyl)piperidin-3-yl) methanone], the inhibition at 5 µM lay in the range of 25 to 50%.
As to `Cc1cc(N2CCN(C(=O)C3CCCN(S(=O)(=O)c4ccc(C)c(C)c4)C3)CC2)c2ccccc2n1` (stereo not drawn) [Formula 22, (1-((3,4-dimethylphenyl)sulfonyl)piperidin-3-yl) (4-(2-methylquinolin-4-yl)piperazin-1-yl) methanone], the inhibition at 5 µM was in the range of 25 to 50%.
Turning to `O=C(C1CCCN(S(=O)(=O)c2cccc(F)c2)C1)N1CCN(c2cc(C(F)(F)F)nc3ccccc23)CC1` (stereo not drawn) [Formula 72, (1-(3-fluorophenylsulfonyl)piperidin-3-yl) (4-(2-(trifluoromethyl)quinolin-4-yl)piperazin-1-yl) methanone], the inhibition at 5 µM fell in the range of 25 to 50%.
`O=C(C1CCCN(S(=O)(=O)c2ccc(F)cc2)C1)N1CCN(c2cc(C(F)(F)F)nc3ccccc23)CC1` (stereo not drawn) [Formula 66, (1-(4-fluorophenylsulfonyl)piperidin-3-yl) (4-(2-(trifluoromethyl)quinolin-4-yl)piperazin-1-yl) methanone]: the inhibition at 5 µM fell in the range of 25 to 50%.

The assay is the same for the next values; noted with them: compound concentration 5 μM; 75% or more; read-out: % Inhibition 75% or more.
For the compound `O=C([C@@H]1CCCN(S(=O)(=O)c2ccc(Br)cc2)C1)N1CCN(c2ccnc3cc(F)ccc23)CC1` [Formula 57, (R)-(1-(4-bromophenylsulfonyl)piperidin-3-yl) (4-(7-fluoroquinolin-4-yl)piperazin-1-yl) methanone], the inhibition at 5 µM was 0%.
With `O=C(C1CCCN(S(=O)(=O)c2cccc(O)c2)C1)N1CCN(c2ccnc3cc(F)ccc23)CC1` (stereo not drawn) [Formula 94, (4-(7-fluoroquinolin-4-yl)piperazin-1-yl) (1-(3-hydroxyphenylsulfonyl)piperidin-3-yl) methanone], the inhibition at 5 µM is not below 75%.
Still for that read-out and setting: the same measure for `O=C(C1CCCN(S(=O)(=O)c2ccc(-c3cccnc3)cc2)C1)N1CCN(c2ccnc3ccccc23)CC1` (stereo not drawn) [Formula 114, (1-(4-(pyridin-3-yl)phenylsulfonyl)piperidin-3-yl) (4-(quinolin-4-yl)piperazin-1-yl) methanone]: not below 75%; for `CN(C)c1ccc(S(=O)(=O)N2CCC[C@H](C(=O)N3CCN(c4ccnc5ccccc45)CC3)C2)cc1` [Formula 80, (S)-(1-(4-(dimethylamino)phenylsulfonyl)piperidin-3-yl) (4-(quinolin-4-yl)piperazin-1-yl)methanone]: not below 75%; for `O=C(C1CCCN(S(=O)(=O)c2ccc(-c3ccncc3)cc2)C1)N1CCN(c2ccnc3cc(F)ccc23)CC1` (stereo not drawn) [Formula 106, (4-(7-fluoroquinolin-4-yl)piperazin-1-yl) (1-(4-(pyridin-4-yl)phenylsulfonyl)piperidin-3-yl) methanone]: 0%.
With `O=C(C1CCCN(S(=O)(=O)c2ccc(-c3cccnc3)cc2)C1)N1CCN(c2ccnc3cc(F)ccc23)CC1` (stereo not drawn) [Formula 108, (4-(7-fluoroquinolin-4-yl)piperazin-1-yl) (1-(4-(pyridin-3-yl)phenylsulfonyl)piperidin-3-yl) methanone], the inhibition at 5 µM is not below 75%.
Same read-out and setting: the same measure for `CC(=O)Nc1cccc(S(=O)(=O)N2CCC[C@@H](C(=O)N3CCN(c4ccnc5cc(F)ccc45)CC3)C2)c1` [Formula 59, (R)—N-(3-(3-(1-(7-fluoroquinolin-4-yl)piperazine-4-carbonyl)piperidin-1-ylsulfonyl)phenyl) acetamide]: not below 75%; for `Cc1ncc(-c2ccc(S(=O)(=O)N3CCCC(C(=O)N4CCN(c5ccnc6ccccc56)CC4)C3)cc2)cn1` (stereo not drawn) [Formula 115, (1-(4-(2-methylpyrimidin-5-yl)phenylsulfonyl)piperidin-3-yl) (4-(quinolin-4-yl)piperazin-1-yl) methanone]: not below 75%.
For the compound `CN(C)c1ccc(S(=O)(=O)N2CCC[C@@H](C(=O)N3CCN(c4ccnc5ccccc45)CC3)C2)cc1` [Formula 79, (R)-(1-(4-(dimethylamino)phenylsulfonyl)piperidin-3-yl) (4-(quinolin-4-yl)piperazin-1-yl)methanone], the inhibition at 5 µM was not below 75%.
On to `CN(C)c1cccc(S(=O)(=O)N2CCC[C@@H](C(=O)N3CCN(c4ccnc5cc(F)ccc45)CC3)C2)c1` [Formula 61, (R)-(1-(3-(dimethylamino)phenylsulfonyl)piperidin-3-yl) (4-(7-fluoroquinolin-4-yl)piperazin-1-yl) methanone], for which the inhibition at 5 µM is not below 75%.
`Cc1cc(N2CCN(C(=O)C3CCCN(S(=O)(=O)c4cccc([N+](=O)[O-])c4)C3)CC2)c2ccccc2n1` (stereo not drawn) [Formula 28, (4-(2-methylquinolin-4-yl)piperazin-1-yl) (1-(3-nitrophenylsulfonyl)piperidin-3-yl) methanone]: the inhibition at 5 µM is not below 75%.
Turning to `CCN(CC)c1ccc(S(=O)(=O)N2CCCC(C(=O)N3CCN(c4ccnc5ccccc45)CC3)C2)cc1` (stereo not drawn) [Formula 83, (1-(4-(diethylamino)phenylsulfonyl)piperidin-3-yl) (4-(quinolin-4-yl)piperazin-1-yl)methanone], the inhibition at 5 µM was not below 75%.
As for `Cc1cc(N2CCN(C(=O)C3CCCN(S(=O)(=O)c4ccc(-c5cccnc5)cc4)C3)CC2)c2ccccc2n1` (stereo not drawn) [Formula 105, (4-(2-methylquinolin-4-yl)piperazin-1-yl) (1-((4-(pyridin-3-yl)phenyl)sulfonyl)piperidin-3-yl) methanone], the inhibition at 5 µM stood at 0%.

The assay is the same for the next values; noted with them: compound concentration 5 μM; '50%-75%'; read-out: % Inhibition 50%-75%.
Regarding `COc1ccc2c(N3CCN(C(=O)C4CCCN(S(=O)(=O)c5ccc(F)cc5)C4)CC3)ccnc2c1` (stereo not drawn) [Formula 89, (1-(4-fluorophenylsulfonyl)piperidin-3-yl) (4-(7-methoxyquinolin-4-yl)piperazin-1-yl) methanone], the inhibition at 5 µM lay in the range of 50 to 75%.
On the same count and under the same terms, the result for `Cc1cc(N2CCN(C(=O)C3CCCN(S(=O)(=O)c4ccc(F)cc4)C3)CC2)c2ccccc2n1` (stereo not drawn) [Formula 24, (1-((4-fluorophenyl)sulfonyl)piperidin-3-yl) (4-(2-methylquinolin-4-yl)piperazin-1-yl) methanone] reads 50 to 75%; that for `COC(=O)c1ccc(S(=O)(=O)N2CCCC(C(=O)N3CCN(c4ccnc5cc(Cl)ccc45)CC3)C2)cc1` (stereo not drawn) [Formula 12, methyl 4-((3-(1-(7-chloroquinolin-4-yl)piperazine-1-carbonyl)piperidin-1-yl)sulfonyl)benzoate], 50 to 75%; that for `O=C(C1CCCN(S(=O)(=O)c2ccc(F)cc2)C1)N1CCN(c2ccnc3cc(Cl)ccc23)CC1` (stereo not drawn) [Formula 3, (4-(7-chloroquinolin-4-yl)piperazin-1-yl) (1-((4-fluorophenyl)sulfonyl)piperidin-3-yl) methanone], 50 to 75%.
Take `COc1ccc2c(N3CCN(C(=O)C4CCCN(S(=O)(=O)c5ccc(NC(C)=O)cc5)C4)CC3)ccnc2c1` (stereo not drawn) [Formula 87, N-(4-(3-(1-(7-methoxyquinolin-4-yl)piperazine-4-carbonyl)piperidin-1-ylsulfonyl)phenyl) acetamide]: the inhibition at 5 µM was found to be 0%.
Same read-out and setting: the same measure for `O=C(C1CCCN(S(=O)(=O)c2ccccc2)C1)N1CCN(c2ccnc3cc(Cl)ccc23)CC1` (stereo not drawn) [Formula 1, (4-(7-chloroquinolin-4-yl)piperazin-1-yl) (1-(phenylsulfonyl)piperidin-3-yl) methanone]: 50 to 75%.
